Source: patent US20240132431A1, “METHOD FOR ALKYLATING ACIDIC FUNCTIONAL GROUP” (Chugai Seiyaku Kabushiki Kaisha, priority 2021, published 2024)

Target: T1, Bcl-2 protein (Recombinant Human Bcl-2 Protein) (Homo sapiens, UniProt P10415)
T1 construct: purchased Novus NBP2-34889
Experiment: Binding evaluation of mixture library compounds to Bcl-2 using AS-MS (affinity selection mass spectrometry)
Settings: AS-MS, mixture library, Bcl-2, ASMS Ratio(%)=(A−C)/B×100; for ASMS ratio (%) n = 1: replicate n = 1; for ASMS ratio (%) n = 2: replicate n = 2
Outline: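 Pooled library of ~1200 compounds ([…] each, final) incubated with recombinant human Bcl-2 (20 μM final) in Tris-HCl pH 7.4, NaCl, Tween-20, DTT buffer, dark, 23° C., 1 h. Bound fraction recovered by SEC spin column, organic extraction, reversed-phase LC/MS. ASMS Ratio (%) = (A−C)/B×100 versus protein-free standard and SEC blank.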

T1 sequence (P10415 whole entry): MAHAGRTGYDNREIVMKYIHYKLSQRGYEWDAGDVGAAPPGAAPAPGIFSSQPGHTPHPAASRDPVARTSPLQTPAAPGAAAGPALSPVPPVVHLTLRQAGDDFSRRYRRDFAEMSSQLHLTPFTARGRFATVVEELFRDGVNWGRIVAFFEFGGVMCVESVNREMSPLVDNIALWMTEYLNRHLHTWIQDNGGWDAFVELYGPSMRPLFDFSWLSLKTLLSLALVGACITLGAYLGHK

| Compound | ASMS ratio (%) n = 1 [%] | ASMS ratio (%) n = 2 [%] |
| --- | --- | --- |
| CCOc1cccc(-c2cc(CN3CCN(c4ccc(C(=O)NS(=O)(=O)CC56CC7CC(CC(C7)C5)C6)cc4)CC3)cc(C(F)(F)F)c2)c1 [B2A061-01, N-(1-Adamantylmethylsulfonyl)-4-[4-[[3-(3-ethoxyphenyl)-5-(trifluoromethyl)phenyl]methyl]piperazin-1-yl]benzamide] | 1.7 | −5.6 |
| CCOc1cncc(-c2cc(CN3CCN(c4ccc(C(=O)NS(=O)(=O)CC56CC7CC(CC(C7)C5)C6)cc4)CC3)cc(C(F)(F)F)c2)c1 [B2A062-01, N-(1-Adamantylmethylsulfonyl)-4-[4-[[3-(5-ethoxypyridin-3-yl)-5-(trifluoromethyl)phenyl]methyl]piperazin-1-yl]benzamide] | −5.2 | 3.6 |
| CCOc1cccc(-c2cc(CN3CCN(c4ccc(C(=O)NS(=O)(=O)CC56CC7CC(CC(C7)C5)C6)cc4)CC3)cc(OC(F)(F)F)c2)c1 [B2A063-01, N-(1-Adamantylmethylsulfonyl)-4-[4-[[3-(3-ethoxyphenyl)-5-(trifluoromethoxy)phenyl]methyl]piperazin-1-yl]benzamide] | 0.5 | 3.3 |
| CCOc1cncc(-c2cc(CN3CCN(c4ccc(C(=O)NS(=O)(=O)CC56CC7CC(CC(C7)C5)C6)cc4)CC3)cc(OC(F)(F)F)c2)c1 [B2A064-01, N-(1-Adamantylmethylsulfonyl)-4-[4-[[3-(5-ethoxypyridin-3-yl)-5-(trifluoromethoxy)phenyl]methyl]piperazin-1-yl]benzamide] | 0.0 | −0.3 |
| CCOc1cccc(-c2ccc(CN3CCN(c4ccc(C(=O)NS(=O)(=O)CC56CC7CC(CC(C7)C5)C6)cc4)CC3)c3ccccc23)c1 [B2A065-01, N-(1-Adamantylmethylsulfonyl)-4-[4-[[4-(3-ethoxyphenyl)naphthalen-1-yl]methyl]piperazin-1-yl]benzamide] | 10.5 | −2.9 |
| CCOc1cncc(-c2ccc(CN3CCN(c4ccc(C(=O)NS(=O)(=O)CC56CC7CC(CC(C7)C5)C6)cc4)CC3)c3ccccc23)c1 [B2A066-01, N-(1-Adamantylmethylsulfonyl)-4-[4-[[4-(5-ethoxypyridin-3-yl)naphthalen-1-yl]methyl]piperazin-1-yl]benzamide] | 3.2 | 0.0 |
| CCOc1cccc(-c2csc(CN3CCN(c4ccc(C(=O)NS(=O)(=O)CC56CC7CC(CC(C7)C5)C6)cc4)CC3)c2)c1 [B2A067-01, N-(1-Adamantylmethylsulfonyl)-4-[4-[[4-(3-ethoxyphenyl)thiophen-2-yl]methyl]piperazin-1-yl]benzamide] | 0.0 | 0.0 |
| CCOc1cncc(-c2csc(CN3CCN(c4ccc(C(=O)NS(=O)(=O)CC56CC7CC(CC(C7)C5)C6)cc4)CC3)c2)c1 [B2A068-01, N-(1-Adamantylmethylsulfonyl)-4-[4-[[4-(5-ethoxypyridin-3-yl)thiophen-2-yl]methyl]piperazin-1-yl]benzamide] | 0.0 | 0.0 |
| CCOc1cccc(C#Cc2ccccc2CN2CCN(c3ccc(C(=O)NS(=O)(=O)CC45CC6CC(CC(C6)C4)C5)cc3)CC2)c1 [B2A069-01, N-(1-Adamantylmethylsulfonyl)-4-[4-[[2-[2-(3-ethoxyphenyl)ethynyl]phenyl]methyl]piperazin-1-yl]benzamide] | 4.6 | −4.6 |
| CCOc1cncc(C#Cc2ccccc2CN2CCN(c3ccc(C(=O)NS(=O)(=O)CC45CC6CC(CC(C6)C4)C5)cc3)CC2)c1 [B2A070-01, N-(1-Adamantylmethylsulfonyl)-4-[4-[[2-[2-(5-ethoxypyridin-3-yl)ethynyl]phenyl]methyl]piperazin-1-yl]benzamide] | – | 0.0 |
